IC50 data for eleven compounds are collected here from US5179117A, “Antihypercholesterolemic 2-substituted imidazoles” (Du Pont Merck Pharmaceutical Company, priority 1991, dated 1993).

SMILES strings stand for the structures. Counter-ions that a name gives are not always drawn.

The assay has as its target T1, acyl-CoA: cholesterol acyltransferase (ACAT) (Mus musculus, UniProt Q61263).
T1 construct: endogenous in cells; host or cells: J774.A1 murine macrophage-like cells
T1 sequence (Q61263 1-540): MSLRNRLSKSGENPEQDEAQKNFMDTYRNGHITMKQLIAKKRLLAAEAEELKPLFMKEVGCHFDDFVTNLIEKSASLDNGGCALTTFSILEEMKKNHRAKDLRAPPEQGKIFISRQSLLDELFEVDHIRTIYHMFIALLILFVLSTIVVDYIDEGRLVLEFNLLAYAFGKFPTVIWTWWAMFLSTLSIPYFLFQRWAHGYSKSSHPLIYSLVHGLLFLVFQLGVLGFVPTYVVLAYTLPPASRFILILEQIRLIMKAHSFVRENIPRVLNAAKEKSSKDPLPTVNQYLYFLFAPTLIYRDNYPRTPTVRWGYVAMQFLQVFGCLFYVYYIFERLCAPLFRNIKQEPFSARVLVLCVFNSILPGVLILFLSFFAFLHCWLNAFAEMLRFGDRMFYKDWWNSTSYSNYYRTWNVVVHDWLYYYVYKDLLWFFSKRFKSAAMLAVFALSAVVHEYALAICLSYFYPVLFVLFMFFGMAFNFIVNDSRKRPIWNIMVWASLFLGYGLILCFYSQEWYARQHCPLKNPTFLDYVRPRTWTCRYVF
Description: Assay of the inhibition of cholesterol esterification in mammalian cells (J774.A1 macrophages, 14C-oleic acid incorporation into cholesteryl ester, ac-LDL loaded). Format: cell-based. The note with it: murine macrophage-like cell line J774.A1, ac-LDL loaded, 14C-oleic acid pulse; read-out: Cholesterol Esterification IC50 (concentration at which ACAT activity is inhibited by 50%). As to the method: The esterification of cholesterol was determined in the murine macrophage-like cell line J774.A1. Cells were seeded in 35 mm wells at a density of 300,000 cells per well in 2 mls of Dulbecco's Eagle Medium (DMEM) supplemented with 10% fetal bovine serum (FBS). Cells were incubated at 37° C. in an atmosphere of 5% CO2 and 93% humidity. After 24 hours the media was changed to 0.68 mls 10% FBS-DMEM containing 34 μg of acetylated human low density lipoprotein (ac-LDL) to increase the intracellular concentration of cholesterol and promote esterification. At 41 hours, various inhibitors were added to the cells in DMSO (10 μl/ml maximum). At 43 hours, the cells were pulsed with 0.1 mM ^14 C-oleic acid (10,000 dpm/nmol) complexed with BSA (bovine serum albumin) to follow cholesterol ester formation. The experiment was terminated at 45 hours by washing the monolayers 3 time with 3 ml of Tris-buffered saline at 4° C. The lipids were extracted by incubating the monolayers with 1.5 ml of hexane: isopropanol (3:2, v/v) for 30 min. under gentle agitation. During this period, 10,000 dpm ^3 H-cholesteryl linoleate and 10 μg of cholesteryl oleate were added as an internal standard and carrier respectively. The organic solvent was removed and the cells were washed with an additional 1.0 ml of hexane: isopropanol which was combined with the original extract. The cells were allowed to dry overnight, digested with 1.5 ml of 0.2N sodium hydroxide for 1 hour and an aliquot of the solubilized protein used for protein determination using the Lowry method. The organic extract was taken to dryness, the residue resuspended in 100 μl of chloroform and the lipids separated on silica gel impregnated glass fiber plates using a hexane: diethylether: acetic acid (170:30:1, v/v/v) solvent system. Individual lipids were visualized with iodine and the cholesteryl ester spot cut out and transferred to scintillation vials to determine the amount of radioactivity. The conversion of oleic acid to cholesteryl ester in the control averaged […]/hour/mg protein and was increased upon the addition of ac-LDL to about […]/hour/mg protein. The inhibition of esterification by the compounds is shown in Table 2; the data are expressed as the concentration at which ACAT activity is inhibited by 50% (IC50).
Take `COC(=O)[C@H](CCCCNC(C)=O)NC(=O)CCCSc1nc(-c2ccc(OC)cc2)c(-c2ccc(OC)cc2)[nH]1` [Example 6, N6-acetyl-N2-[4-[4,5-bis(4-methoxyphenyl)-1H-imidazol-2-ylthio]-1-oxobutyl]-L-lysine, methyl ester]: the IC50 was determined as 10300 nM.

With `CCCCCC(=CCCCCSc1nc(-c2ccccc2)c(-c2ccccc2)[nH]1)C(=O)O` [Example 11, 7-(4,5-diphenyl-1H-imidazol-2-ylthio)-2-pentyl-2-heptenoic acid], the IC50 was determined as 13400 nM.

With `COC(=O)[C@H](CCCCNC(=O)OCc1ccccc1)NC(=O)CCCSc1nc(-c2ccc(N(C)C)cc2)c(-c2ccc(N(C)C)cc2)[nH]1` [Example 8, N2-[4-[4,5-bis[4-(dimethylamino)phenyl] -1H-imidazol-2-ylthio]-1-oxobutyl]-N6-[(phenylmethoxy)carbonyl]-L-lysine, methylester], the IC50 turned out to be 4.9 nM.

For the compound `CCCCCC(=CCCCCSc1nc(-c2ccccc2)c(-c2ccccc2)[nH]1)C(=O)OCC` [Example 10, ethyl, 7-(4,5-diphenyl-1H-imidazol-2-ylthio)-2-pentyl-2-heptenoate], the IC50 amounted to 4620 nM.

For the compound `COC(=O)[C@H](CCCCNC(C)=O)NC(=O)CCCSc1nc(-c2ccc(OC)cc2)c(-c2ccc(OC)cc2)n1C(C)=O` [Example 5, N6-acetyl-N2-[4-[1-acetyl-4,5-bis(4-methoxyphenyl)-1H-imidazol-2-ylthio]-1-oxobutyl]-L-lysine, methyl ester], the IC50 was 7150 nM.

In the case of `COC(=O)[C@H](CCCCNC(=O)C12CC3CC(CC(C3)C1)C2)NC(=O)CCCSc1nc(-c2ccc(OC)cc2)c(-c2ccc(OC)cc2)[nH]1` [Example 3, N6-(1-adamantylcarbonyl)-N2-[4-[4,5-bis(4-methoxyphenyl)-1H-imidazol-2-ylthio]-1-oxobutyl]-L-lysine, methyl ester], the IC50 is 386 nM.

In the case of `COC(=O)[C@H](CCCCNC(=O)OCc1ccccc1)NC(=O)CCCSc1nc(-c2ccc(OC)cc2)c(-c2ccc(OC)cc2)[nH]1` [Example 1, N2-[4-[4,5-bis(4-methoxyphenyl)-1H-imidazol-2-ylthio]-1-oxobutyl]-N6-[(phenylmethoxy)carbonyl]-L-lysine, methyl ester], the IC50 stood at 37 nM.

For the compound `CCCC[C@H](NC(=O)CCCSc1nc(-c2ccc(OC)cc2)c(-c2ccc(OC)cc2)[nH]1)C(=O)OC` [Example 9, N-[4-[4,5-bis(4-methoxyphenyl)-1H-imidazol-2-ylthio]-1-oxobutyl]-norleucine, methyl ester], the IC50 stood at 650 nM.

For `COc1ccc(-c2nc(SCCCC(=O)N[C@@H](CCCCNC(=O)OCc3ccccc3)C(=O)NC(C)C)[nH]c2-c2ccc(OC)cc2)cc1` [Example 7, phenylmethyl, (S)-[5-[[4-[4,5-bis(4-methoxyphenyl)-1H-imidazol-2-ylthio]-1-oxobutyl]amino]-6-[(1-methylethyl)amino]-6-oxohexyl]carbamate], the IC50 is 1100 nM.

Take `COC(=O)[C@H](CCCCNC(=O)NCc1ccccc1)NC(=O)CCCSc1nc(-c2ccc(OC)cc2)c(-c2ccc(OC)cc2)[nH]1` [Example 4, N2-[4-[4,5-bis(4-methoxyphenyl)-1H-imidazol-2-ylthio]-1-oxobutyl]-N6-[(phenylmethyl)-aminocarbonyl]-L-lysine, methyl ester]: the IC50 stood at 601 nM.

Turning to `COC(=O)[C@H](CCCCN)NC(=O)CCCSc1nc(-c2ccc(OC)cc2)c(-c2ccc(OC)cc2)[nH]1` [Example 2, N2-[4-[4,5-bis(4-methoxyphenyl)-1H-imidazol-2-ylthio]-1-oxobutyl]-L-lysine, methyl ester hydrobromide], the IC50 was 100000 nM.
